Like-named read-outs stand apart in the source and are kept apart here.
Experiments:
[1] = system: CFA-induced pain model; assay: Antiallodynic activity on Complete Freund's Adjuvant (CFA)-induced inflammatory pain model (von Frey); assay type: in vivo, Sprague-Dawley rats; conditions: ip
[2] = system: Post operation-induced pain model; assay: Antiallodynic activity on post operative pain-induced pain model (von Frey); assay type: in vivo, Sprague-Dawley rats; conditions: 0.5 h; for ED50: ip
Experimental: Male Sprague-Dawley rats (Orient Bio, Korea), 300-320 g, total of 201 rats were used (details in Table 7). Rats were habituated at least 3 days before surgery and free access to food and water (room temperature and humidity were maintained at […] and 50±10%, respectively). The process of performing the post-operation model's surgery was adapted from Brennan et al (1996). At first, rats with allodynia (threshold valueless than 8 g) were excluded in Pre-von Frey Test. During the post-operation surgery, rats were anesthetized under gaseous anesthesia with 2% isoflurane. Rats were laid face down on a plate fixed at 37° C. to prevent against hypothermia. The ipsilateral plantar aspect (left side) of the hind paw was prepared in a sterile manner with a 10% povidone-iodine solution. A longitudinal incision (1 cm) (FIG. 2-A) was made with a blade (number 11) through the skin and fascia of the ipsilateral plantar aspect of the foot, starting from 0.5 cm below the proximal edge of the heel and extending toward the toes. Rats' plantar muscles were elevated and incised longitudinally (FIG. 2-B). After hemostasis with gentle pressure, the skin was opposed with 2 mattress sutures (4-0 Dafilon) (FIG. 2-C). The wound site was covered with a 10% povidone-iodine solution gauze and injected with antibiotics (gentamicin, 8 mg/kg, ip). The sutures were removed under halothane anesthesia approximately 30 hours later, at the end of post-operative day 1.
After 2-3 days of recovery, rats with a good response (threshold less than 4 g) in Pre-von Frey Test were selected. According to this response, we made three groups with each group having equal average responses: Group 1, post-operation and drug treated; Group 2, post-operation and vehicle treated; Group 3, no post-operation and vehicle treated. In this study, Group 3 was the sham control (positive) group. The group 2 was used to check for possible failures to generate post-operative pain.
For efficacy measure, the threshold value of group C was assigned 100% efficacy, and the percentage of the threshold values of group A compared to group C (for each different dose level) were calculated as the efficacies. Base on these efficacy values, ED50 was calculated using log fitting. If there was no clear ED50, then we marked the percent efficacy at the highest tested dose or larger than highest tested dose.
For pain threshold test, all animals were placed in a stainless steel meshed chamber and habituated for 30 min in the test box. The tactile sensitivity of the ipsilateral hind paw was measured using the up-and-down method (Dixon, 1980) with seven von Frey monofilaments (0.4, 1, 2, 4, 6, 8, and 15 g) using 3 trials. The 50% paw withdrawal threshold for each paw was calculated using the following formula: [Xth] log=[vFr] log+ky, where [vFr] is the force of the last von Frey filament used, k=0.2249 which is the average interval (in log units) between the von Frey monofilaments, y which is a value that depends upon the pattern of withdrawal responses, and Xth which is the threshold value (Dixon, 1980).
Drugs were dissolved 30% PEG400 for example 60, 0.9% saline for Pregabalin, 20% Tween80 for Tylenol, 0.9% saline for Topiramate. These vehicles were selected depending on the compound's solubility. Intraperitoneal injection (5 μl/g) was done for all drugs.
The relative values compared to the sham (% control) were calculated and shown in Table 8, which show an antiallodynic effect of the compound of examples on Post operation-induced pain model in rats.

[3] = Rattus norvegicus, 0.5 h, read-out: CFA model: ED50 mg/kg
[4] = Rattus norvegicus, read-out: Post Operation: ED50 mg/kg

Row | SMILES | ED50 [1, 3] [mg/kg] | ED50 [2, 4] [mg/kg] | further results
1 | CC1(C)Oc2ccccc2[C@@H](COS(N)(=O)=O)O1 [Example 2, ((S)-2,2-dimethyl-4H-benzo[d][1,3]dioxin-4-yl)methyl sulfamate] | – | – | ED50 ([1]; rat, intraperitoneal, 0.5 h, read-out: CFA model: ED50): 18.8 mg/kg; ED50 ([2]; rat, intraperitoneal, read-out: Post Operation: ED50): 14.9 mg/kg
2 | CC1(C)Oc2ccccc2[C@H](COS([NH-])(=O)=O)O1.[Na+] [Example 58, Sodium (R)-(((2,2-dimethyl-4H-benzo[d][1,3]dioxin-4-yl)methoxy)sulfonyl)amide Trihydrate] | 23.3 | 19.4 | –
3 | CC1(C)Oc2ccccc2C(COS([NH-])(=O)=O)O1.[Na+] (stereo not shown) [Example 60, Sodium (((2,2-dimethyl-4H-benzo[d][1,3]dioxin-4-yl)methoxy)sulfonyl)amide Trihydrate] | – | 18.9 | ED50 ([1]; Rattus norvegicus, 1 h, read-out: CFA model: ED50 mg/kg): 25 mg/kg
4 | [NH-]S(=O)(=O)OC[C@H]1OC2(CCCC2)Oc2ccccc21.[Na+] [Example 65, Sodium (S)-(((4H-spiro[benzo[d][1,3]dioxine-2,1′-cyclopentan]-4-yl)methoxy)sulfonyl)amide] | 89.1 | 31.8 | –
5 | CC1(C)Oc2ccccc2[C@H](COS([NH-])(=O)=O)O1.[K+] [Example 70, Potassium (R)-(((2,2-dimethyl-4H-benzo[d][1,3]dioxin-4-yl)methoxy)sulfonyl)amide] | – | – | response vs control in vivo at 25 mg/kg ([1]; Rattus norvegicus, 0.5 h, read-out: CFA model: effect (%) compared to control): 10.5%; Post Operation: effect (%) compared to control ([2]; rat, intraperitoneal, 18.9 mg/kg administered): (22.0%, 0.5 h)
